The source of these data is patent US20120270935A1, “FORMULATIONS” (priority 2009, published 2012).

A word on the MIC: it is the lowest concentration that inhibits growth of the organism. In general, MBC refers to the smallest concentration meeting the test's criterion for killing. Read a high MBC as less potent killing.

Each structure is given as a SMILES string.

One assay concerns P. acnes. Briefly: Agar dilution MIC assay, panel of propionibacterium strains. It counts as cell-based, Propionibacterium acnes. The method, then: This is a standard international method for quantitatively assessing the antimicrobial activity of a compound in a solid medium. The test compound was prepared to 40× the highest concentration required (eg 10 mg/ml for a final concentration of […]) and a series of doubling dilutions were performed in a suitable solvent. A set amount of these antimicrobial stock solutions was then added to molten agar medium (ca 55° C.), mixed thoroughly, poured into sterile Petri dishes and allowed to cool/set. The culture medium was as described above.
A Multipoint™ Inoculator (AQS Manufacturing Ltd, UK) was used to inoculate the plates by spotting the inocula onto the surface of the agar, delivering approximately 1 to 2 μl per spot (yielding 10^5 CFU (colony forming units) per spot).
The plate(s) were then incubated under the conditions described above, following which they were examined visually for signs of bacterial growth. The MIC value was ascertained when there was a marked reduction in, or total loss of, growth on the test plate at the lowest concentration as compared to that of the growth on the control plate.
The assays were conducted in triplicate and included a positive control (culture medium, diluting solvent and inoculum).
The activity (MIC by agar dilution) of copper usnate was determined against a panel of different propionibacterium strains. The culture medium was Wilkins-Chalgren agar, at pH 6.0. DMSO was used as the solvent. All tests were performed in triplicate.
Background: In agar dilution, organisms are placed on agar that contains the substance at set levels.

The test system of another assay is S. pyogenes ATCC 12344. Kind of assay: MBC assay. In kind it is cell-based, Streptococcus pyogenes. Conditions: Mueller-Hinton broth pH 7.0. From the text: (a) staphylococci. The Staphylococcus aureus strain used was ATCC 29213. S. aureus and other staphylococci are common causes of a wide range of skin, skin structure and wound infections; S. aureus is also known to exacerbate eczema. The ATCC 29213 strain is known to be susceptible to beta-lactam antibiotics such as methicillin. The Staphylococcus epidermidis strain used was NCTC 11047. Staph. epidermidis forms part of the resident flora of skin and is an opportunistic pathogen which can cause biofilms to grow for instance on plastic surgical implants such as catheters. Unless otherwise stated, the staphylococci were cultured and maintained on Mueller-Hinton Medium (agar and broth) at pH 7.2; cultures were incubated aerobically at 37° C. for 19-20 hours, at pH 7 (±0.2). (b) C. striatum NCTC 764. Corynebacterium striatum is closely related to organisms (aerobic diphtheroids of the genus Corynebacterium) that cause body odour. It was cultured and maintained on Mueller-Hinton medium (agar and broth). All cultures were incubated aerobically at 37° C. for 72 hours, at pH 7 (±0.2). (c) streptococci. The strains tested were S. mutans ATCC 25175 and S. pyogenes ATCC 12344. S. mutans is a Gram-positive, microaerophilic bacterium which plays a significant role in dental caries and in infective endocarditis. Streptococcus pyogenes is associated with skin, soft tissue, burn and wound infections. […]

Regarding `CC(=O)c1c([O-])c(C)c([O-])c2c1OC1=CC(=O)C(C(C)=O)C(=O)C12C.[Cu+2]` (stereo not drawn) [Copper usnate, copper (II) usnate], the MIC amounted to 0.49 µg/mL in the assay on P. acnes (P. acnes NCTC 737, mutation None, resistance phenotype None); 0.49 µg/mL in the assay with P. acnes (P. acnes PRP-002, mutation 1058/2058, resistance Tet/MLS); 0.49 µg/mL with P. acnes (P. acnes PRP-003, mutation 1058, resistance Tet); 0.49 µg/mL against P. acnes (P. acnes PRP-004, mutation 1058, resistance Tet); 0.49 µg/mL with P. acnes (P. acnes PRP-007, mutation Unknown, resistance Clin); 0.49 µg/mL in the assay with P. acnes (P. acnes PRP-010, Erm X, resistance MLSK). Further, the MIC against P. acnes (P. acnes PRP-017, mutation 2058, resistance MLS) turned out to be 0.49 µg/mL; against P. acnes (P. acnes PRP-023, Erm X, resistance MLSK), 0.49 µg/mL; against P. acnes (P. acnes PRP-026, mutation 2059, resistance MLS) it was 0.49 µg/mL; with P. acnes (P. acnes PRP-039, mutation 2059, resistance Tet/MLS) it was 0.49 µg/mL; with P. acnes (P. acnes PRP-046, mutation None, resistance None), 0.49 µg/mL; with P. acnes (P. acnes PRP-059, mutation 2058, resistance MLS), 0.49 µg/mL. The MIC is 0.49 µg/mL with P. acnes (P. acnes PRP-101, mutation 1058/2059, resistance Tet/MLS) and 0.49 µg/mL in the assay on P. acnes (P. acnes PRP-102, mutation 1058/2059, resistance Tet/MLS). Besides, in the assay with S. pyogenes ATCC 12344, the MBC was 0.98 µg/mL.
